Data from patent US20250177581A1, “NTSR1-TARGETED RADIOPHARMACEUTICALS AND DNA DAMAGE RESPONSE INHIBITOR COMBINATION THERAPY” (Fusion Pharmaceuticals Inc., priority 2022, published 2025).

Tested on: CT-26-mNTSR1 tumor
Assay: Combination of [^225Ac]-Compound A and Olaparib in CT-26-mNTSR1 tumor bearing mice, tumor growth
Assay type: in vivo, mouse
Settings: olaparib monotherapy at 50 mg/kg
Protocol: An in vivo study was conducted to test the effect of [^225Ac]-Compound A (as described in Example 3) in combination with Olaparib in CT-26-mNTSR1 tumor bearing mice.

With `O=C(c1cc(Cc2n[nH]c(=O)c3ccccc23)ccc1F)N1CCN(C(=O)C2CC2)CC1` [olaparib] the “reduction in tumor growth compared to control mice” value was “slight or neglible reduction in tumor growth”.
